Assay results taken from PMC7615676, “Short-course combination treatment for experimental chronic Chagas disease” (Science translational medicine, 2023).
Several values for one entry are separate records, joined by “and”; a condition that tells them apart may be missing. Identical values can stand only once. Like-named read-outs stand apart in the source and are kept apart here.

What was measured:
[1] = tested on: isolated rat liver mitochondria; assay: calcium loading capacity (CLC) in rat liver mitochondria; type: biochemical; settings: minimum effective concentration
Procedure: The CLC of freshly isolated liver mitochondria was determined as previously described ([70]). Briefly, mitochondria were suspended at 0.2 mg/ml in incubation buffer B, supplemented with 100 μM arsenazo III, 2.5 μM rotenone and 1 μg/ml oligomycin in each well of a 96 well microplate (control and treated mitochondria were assayed simultaneously) and absorbance measured every 2 seconds at 650 nm in a FlexStation3 microplate reader (Molecular Devices, Sunnyvale, CA, USA). After approximately 1 minute of reading, Ca^2+ was added (0.5-1 μmol/ mg mitochondrial protein) followed by the addition of 10 mM succinate as the mitochondrial substrate. The CLC was calculated as the difference in optical density (ΔOD) between the point at which mitochondria were energized and the point where mitochondrial permeability transition was triggered (i.e., the lowest OD reading before calcium release via MPT).
The concentration-response relationship was modelled using a robust fit of a cubic polynomial regression ([74], [75]). The fitted curves were then used to calculate the Minimum Effective Concentration (MEC). The MEC was defined as the lowest concentration where the fitted curve exceeded 3 standard deviations (SD) around the DMSO mean response. SD was estimated from the deviations of DMSO and compound treated wells around the fitted means, using a robust estimator based on Gini’s mean difference ([76]).

[2] = tested on: HepG2 cells; assay: Seahorse MST (mitochondrial stress test), oxygen consumption rate; type: cell-based; settings: lowest concentration reducing OCR >15% vs DMSO
Procedure: To measure the Oxygen Consumption Rate (OCR) in cells following compound treatment, the Seahorse XFe96 Extracellular Flux Analyser (Agilent) was used ([69]). HepG2 cells were maintained in DMEM medium (Invitrogen #11966-025) supplemented with 10 mM galactose, 1 mM sodium pyruvate, 5 mM HEPES, 2 mM GlutaMAX, 10% fetal bovine serum and 50 μg/ml gentamycin. Cells were maintained in a 37 °C, 5% CO2 humidified atmosphere. The measurement of OCR was performed as previously described ([70], [71]) with minor modifications. Briefly, HepG2 cells were seeded in an XF96-well plate at 14000 cells per 100 μl cell culture medium per well and incubated in a 37 °C, 5% CO2 humidified atmosphere for 24 hours. Following incubation, the culture medium was replaced with 175 μl pre-warmed, serum-free XF base assay medium (Agilent), supplemented with 2 mM L-glutamine, 1 mM sodium pyruvate and 10 mM galactose (pH 7.4) and incubated at 37 °C for one hour. Test compounds (compound 3 and 4) were maintained in DMSO and a four-point dose response (final concentrations 10, 20, 40 and 80 μM), plus 0.4% DMSO control, were diluted to 8× concentration in XF assay medium and 25 μL was loaded into Port A of the XF Assay Cartridge. The mito-stress test components oligomycin (1 μM final), carbonyl cyanide-4-(trifluoromethoxy)-phenylhydrazon [FCCP] […]

[3] = molecular target: T1, Human complex III (bc1), mitochondria from THP-1 (Homo sapiens, UniProt P00156); assay: human complex III inhibition assay; type: biochemical
T1 construct: Preparation of mitochondria from a human cell line (THP-1); endogenous in cells; host or cells: THP-1 (human) mitochondria
Procedure: Preparation of mitochondria from a human cell line (THP-1) was performed following published procedure ([72]). The protocol for the assay has been described in ([73]).

[4] = tested on: wild-type T. cruzi epimastigotes; assay: epimastigote drug sensitivity assay, wild-type; type: cell-based; settings: Trypanosoma cruzi
Procedure: (§1) T. cruzi epimastigotes from the Silvio strain (MHOM/BR/78/Silvio; clone X10/7A) were grown at 28°C in RTH/FBS medium ([80]).
(§2) T. cruzi epimastigote assays carried out as described previously ([43]).

[5] = tested on: Vero host cells; assay: cytotoxicity against host cells in intracellular amastigote assay; type: cell-based; settings: Chlorocebus sabaeus, Vero, host cell cytotoxicity
[6] = tested on: T. cruzi epimastigotes bearing mutations in cytochrome b; assay: epimastigote drug sensitivity assay, cytochrome b mutant / resistant lines; type: cell-based, Trypanosoma cruzi; settings: for EC50: Trypanosoma cruzi; for fold change from WT, L197I: compound 3-resistant line (L197I); for fold change from WT, F222L: compound 5-resistant line (F222L)
Procedure: as §1, §2
Compound-resistant cell lines were generated by subculturing clones of wild-type T. cruzi epimastigotes in the continuous presence of compound 3 or compound 5. Starting at sublethal concentrations, drug concentrations in 3 independent cultures were increased in a stepwise manner, usually by 2-fold. When parasites were able to survive and grow in compound concentrations equivalent to >30-fold their established EC50 value, they were cloned by limiting dilution in the presence of compound. Three independent clones were selected from each compound for further study.

[7] = tested on: chronic T. cruzi infection (CL Brener) in BALB/c mice; parameters: method as in PMID 27748443; settings: cited from earlier work
[8] = parameters: method as in PMID 21073628, PMID 20932171; settings: patients; cited from earlier work
[9] = 200.00 µM, read-out: Average % inhibition of human bc1
[10] = Table 2, wild-type epimastigotes, read-out: EC50 WT
[11] = read-out: Vero pEC50 (converted)

| SMILES | Calcium loading capacity, rat mitochondria, MEC [1] [µM] | Seahorse MST, HepG2, LEC [2] [µM] | % inhibition of human bc1, individual replicates ([3]; 0.09 µM) | inhibition at 0.09 µM ([3]; 0.09 µM) [%] | % inhibition of human bc1, individual replicates ([3]; 0.27 µM) | inhibition at 0.27 µM ([3]; 0.27 µM) [%] | % inhibition of human bc1, individual replicates ([3]; 0.82 µM) | inhibition at 0.82 µM ([3]; 0.82 µM) [%] | % inhibition of human bc1, individual replicates ([3]; 2.47 µM) | inhibition at 2.47 µM ([3]; 2.47 µM) [%] | % inhibition of human bc1, individual replicates ([3]; 7.41 µM) | inhibition at 7.41 µM ([3]; 7.41 µM) [%] | % inhibition of human bc1, individual replicates ([3]; 22.22 µM) | EC50 [4, 10] [nM] | EC50 ([5]; read-out: Vero EC50) [nM] | EC50 [5, 11] [nM] | EC50 ([6]; read-out: EC50 F222L) [nM] | EC50 ([6]; read-out: EC50 L197I) [nM] | fold change from WT, L197I [6] [fold] | fold change from WT, F222L [6] [fold] | other results |
| --- | --- | --- | --- | --- | --- | --- | --- | --- | --- | --- | --- | --- | --- | --- | --- | --- | --- | --- | --- | --- | --- |
| COc1cc(Cl)ccc1-c1c(C)[nH]c2nc(N)nc(C)c12 [Compound 3, 5-(4-Chloro-2-methoxyphenyl)-4,6-dimethyl-7H-pyrrolo[2,3-d]pyrimidin-2-amine] | 5.7 | 80 | -102.79% and -0.39% and 23.45% and -1.32% and -77.48% and 6.58% | -25.3 | -31.71% and -5.91% and 16.57% and 7.05% and 0.38% and 2.42% | -1.87 | -55.04% and -6.88% and 19.61% and 6.94% and 1.93% and 10.74% | -3.78 | -19.11% and -13.68% and 7.11% and 15.66% and -8.81% and 14.23% | -0.76 | -1.93% and 0.10% and 21.95% and 17.90% and 0.73% and -3.46% | 5.88 | -14.09% and -16.93% and 21.42% and 11.31% and -5.13% | 6 ± 0.2 | > 50000 | > 50100 | 1120 ± 63 | 115 ± 7 | 19 | 183 | inhibition at 22.22 µM ([3]; 22.22 µM): -0.68%; % inhibition of human bc1, individual replicates ([3]; 66.67 µM): -178.30% and 13.25% and 22.71% and -32.39% and -2.98% and 16.87%; inhibition at 66.67 µM ([3]; 66.67 µM): -26.8%; % inhibition of human bc1, individual replicates ([3]; 200.00 µM): 22.88% and 27.88% and 27.19% and -35.32% and 30.21% and 59.63%; inhibition at 200 µM [3, 9]: 22.1%; inhibition at 200 µM ([3]; 200 μM, read-out: Human complex III inhibition at 200μM): 20%; inhibition of human complex III ([3]; concentrations up to and including 66.7 μM): did not inhibit; EC50 ([4]; read-out: EC50 wild-type): 4.6 ± 0.2 nM; EC50 ([4]; read-out: EC50 wild-type epimastigotes): 11.3 ± 0.5 nM; EC50 ([6]; read-out: EC50 G36C/L197F cytb line): 3 ± 0.1 nM; EC50 ([6]; read-out: EC50 G36C/L197I cytb line): 258 ± 7 nM; EC50 ([6]; read-out: EC50 L197F cytb line): 3.7 ± 0.1 nM; EC50 ([6]; read-out: EC50 compound 3-resistant clone RES1): 107 ± 5.4 nM; EC50 ([6]; read-out: EC50 compound 3-resistant clone RES3): 166 ± 14 nM; cross-resistance of G36C and L197I epimastigotes ([6]; versus wild-type): 23 fold |
| O=C(Cn1ccnc1[N+](=O)[O-])NCc1ccccc1 [Benznidazole, reference compound] |  |  |  |  |  |  |  |  |  |  |  |  |  |  | > 50000 | > 50100 |  |  |  |  | minimum efficacious dose in a five-day chronic study [7]: 100 mg/kg; discontinuation of treatment prior to completion due to adverse side-effects [8]: up to 29% |
| COc1cc(F)ccc1-c1c(C)[nH]c2nc(N)nc(C)c12 [Compound 2, 5-(4-Fluoro-2-methoxyphenyl)-4,6-dimethyl-7H-pyrrolo[2,3-d]pyrimidin-2-amine] |  |  |  |  |  |  |  |  |  |  |  |  |  | 33 ± 2 | > 50000 | > 50100 | 3620 ± 322 | 117 ± 5 | 4 | 109 |  |
| COc1ccc(-c2c(C)[nH]c3nc(N)nc(C)c23)c(OC)c1 [Compound 4, 5-(2,4-Dimethoxyphenyl)-4,6-dimethyl-7H-pyrrolo[2,3-d]pyrimidin-2-amine] | >200 | >80 | -12.21% and 6.38% | -2.92 | -0.73% and 8.86% and -14.09% | -1.99 | -0.42% and -1.05% and -3.03% | -1.5 | -7.80% and 0.71% and -1.55% | -2.88 | 20.02% and -3.97% and 5.85% | 7.3 | 11.11% and -1.32% and 9.84% | 88 ± 3 | > 50000 | > 50100 | 6380 ± 436 | 432 ± 15 | 5 | 73 | EC50 [3]: > 200000 nM; inhibition at 22.22 µM ([3]; 22.22 µM): 6.55%; % inhibition of human bc1, individual replicates ([3]; 66.67 µM): 21.01% and 18.54% and -10.78%; inhibition at 66.67 µM ([3]; 66.67 µM): 9.59%; % inhibition of human bc1, individual replicates ([3]; 200.00 µM): 5.17% and 18.62% and -0.60%; inhibition at 200 µM [3, 9]: 7.73% |
